The assay deals with T1, GST-tagged GDP-loaded KRAS G12V (amino acids 1-169) (Homo sapiens, UniProt P01116, G12V).
T1 construct: GST-tagged GDP-loaded KRAS G12V (amino acids 1-169); made in house; host or cells: E. coli
As to the kind of experiment: KRAS G12V probe displacement assay (TR-FRET). The assay is classed as binding. As to conditions: displacement of biotinylated probe 2 from GDP-loaded KRAS G12V. The gist of the method: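 Probe displacement read as TR-FRET (665/620 nm) with anti-GST-Tb and streptavidin-XL665, IC50 from four-parameter logistic fit. Compound preincubated 1 h, 24 °C, with E. coli-expressed KRAS 1-169: WT at 3 nM with 60 nM probe 1, G12V at 2 nM with 2.5 nM probe 2, pH 7.5.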
In general terms: In TR-FRET formats the signal depends on donor and acceptor labels being close together.

SMILES strings stand for the structures.

T1 sequence (P01116 1-169 isoform P01116-2 G12V): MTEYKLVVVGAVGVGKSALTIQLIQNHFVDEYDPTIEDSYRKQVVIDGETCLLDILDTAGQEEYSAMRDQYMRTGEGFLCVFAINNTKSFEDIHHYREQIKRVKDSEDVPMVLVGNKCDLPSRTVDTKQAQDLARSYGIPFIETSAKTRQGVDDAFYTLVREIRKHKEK

In the case of `CCN1CC2(CCN(c3nc(OC[C@@]45CCCN4C[C@H](F)C5)nc4c(F)c(-c5ccc(F)c6sc(N)nc56)c(C(F)(F)F)cc34)CC2)OC1=O` [Example 88, 8-(7-(2-amino-7-fluorobenzo[d]thiazol-4-yl)-8-fluoro-2-(((2R,7aS)-2-fluorotetrahydro-1H-pyrrolizin-7a(5H)-yl)methoxy)-6-(trifluoromethyl)quinazolin-4-yl)-3-ethyl-1-oxa-3,8-diazaspiro[4.5]decan-2-one], the IC50 (commonly the concentration at which inhibition is half-maximal) came to 1.4 nM. The figure for `CC1CC(C#N)CCN1c1nc(OC[C@@]23CCCN2C[C@H](F)C3)nc2c(F)c(-c3ccc(F)c4sc(N)nc34)c(C(F)(F)F)cc12` (relative stereo) [Example 74, 1-(7-(2-amino-7-fluorobenzo[d]thiazol-4-yl)-8-fluoro-2-(((2R,7aS)-2-fluorotetrahydro-1H-pyrrolizin-7a(5H)-yl)methoxy)-6-(trifluoromethyl)quinazolin-4-yl)-trans-2-methylpiperidine-4-carbonitrile] is 1.9 nM; for `Nc1nc2c(-c3c(C(F)(F)F)cc4c(N5CC[C@H](CO)C5)nc(OC[C@@]56CCCN5C[C@H](F)C6)nc4c3F)ccc(F)c2s1` [Example 66, ((3S)-1-(7-(2-amino-7-fluorobenzo[d]thiazol-4-yl)-8-fluoro-2-(((2R,7aS)-2-fluorotetrahydro-1H-pyrrolizin-7a(5H)-yl)methoxy)-6-(trifluoromethyl)quinazolin-4-yl)pyrrolidin-3-yl)methanol] it is 7.7 nM; for `Nc1nc2c(-c3c(C(F)(F)F)cc4c(NC5CCCCC5)nc(OC[C@@]56CCCN5C[C@H](F)C6)nc4c3F)ccc(F)c2s1` [Example 27, 4-(4-(cyclohexylamino)-8-fluoro-2-(((2R,7aS)-2-fluorotetrahydro-1H-pyrrolizin-7a(5H)-yl)methoxy)-6-(trifluoromethyl)quinazolin-7-yl)-7-fluorobenzo[d]thiazol-2-amine] it is 503 nM. The compound `Nc1nc2c(-c3c(Cl)cc4c(NC56CC(C5)C6)nc(OC[C@@]56CCCN5C[C@H](F)C6)nc4c3F)ccc(F)c2s1` [Example 32, 4-(4-(bicyclo[1.1.1]pentan-1-ylamino)-6-chloro-8-fluoro-2-(((2R,7aS)-2-fluorotetrahydro-1H-pyrrolizin-7a(5H)-yl)methoxy)quinazolin-7-yl)-7-fluorobenzo[d]thiazol-2-amine] gave an IC50 of 21 nM. The figure for `Cc1cc(N)nc(-c2c(Cl)cc3c(N4CC[C@H](O)C4)nc(OC[C@@]45CCCN4C[C@H](F)C5)nc3c2F)c1C(F)(F)F` [Example 102, (3S)-1-(7-(6-amino-4-methyl-3-(trifluoromethyl)pyridin-2-yl)-6-chloro-8-fluoro-2-(((2R,7aS)-2-fluorotetrahydro-1H-pyrrolizin-7a(5H)-yl)methoxy)quinazolin-4-yl)pyrrolidin-3-ol] is 46 nM. Under `Nc1cc(Cl)c(C(F)(F)F)c(-c2ncc3c(NC4CCC4)nc(OC[C@@]45CCCN4C[C@H](F)C5)nc3c2F)c1` [Example 111, 7-(5-amino-3-chloro-2-(trifluoromethyl)phenyl)-N-cyclobutyl-8-fluoro-2-(((2R,7aS)-2-fluorotetrahydro-1H-pyrrolizin-7a(5H)-yl)methoxy) pyrido[4,3-d]pyrimidin-4-amine] stands 40 nM; under `CS(=O)(=O)C1CN(c2nc(OC[C@@]34CCCN3C[C@H](F)C4)nc3c(F)c(-c4ccc(F)c5sc(N)nc45)c(C(F)(F)F)cc23)C1` [Example 44, 7-fluoro-4-(8-fluoro-2-(((2R,7aS)-2-fluorotetrahydro-1H-pyrrolizin-7a(5H)-yl)methoxy)-4-(3-(methylsulfonyl)azetidin-1-yl)-6-(trifluoromethyl)quinazolin-7-yl)benzo[d]thiazol-2-amine], 14 nM. The figure for `Nc1nc2c(-c3c(Cl)cc4c(NC5CC5)nc(OC[C@@]56CCCN5C[C@H](F)C6)nc4c3F)ccc(F)c2s1` [Example 28, 4-(6-chloro-4-(cyclopropylamino)-8-fluoro-2-(((2R,7aS)-2-fluorotetrahydro-1H-pyrrolizin-7a(5H)-yl)methoxy)quinazolin-7-yl)-7-fluorobenzo[d]thiazol-2-amine] is 3.8 nM.
